One test concerns the target T1, human CSNK1D (Homo sapiens, UniProt P48730).
T1 construct: expressed in transfected cells
Description: Whole Cell nBRET CSNK1D Binding Assay. The settings on record: living CHO cells stably expressing human CSNK1D tagged with nanoluciferase; NanoBret tracer 130 nM; 2 hours at 37 C.

The target in test [1] is T2, human recombinant GST cleaved CSNK1D (Homo sapiens, UniProt P48730).
T2 construct: GST (cleaved yes); purchased University of Dundee clone DU 19064
Description: Purified Enzyme Assay (ADP-Glo CSNK1D Kinase Assay). The settings on record: 2 nM CSNK1D; peptide substrate 150 μM; ATP 20 μM; 45 minutes at room temperature. The test is classed as biochemical. In outline:
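GST-cleaved human recombinant CSNK1D phosphorylates peptide PLSRTL-pS-VASLPGL with ATP; compounds added in dose-response, 45 min at room temperature. ADP formed measured by ADP-Glo luminescence and converted to percent activity.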

T2 sequence (P48730 whole entry): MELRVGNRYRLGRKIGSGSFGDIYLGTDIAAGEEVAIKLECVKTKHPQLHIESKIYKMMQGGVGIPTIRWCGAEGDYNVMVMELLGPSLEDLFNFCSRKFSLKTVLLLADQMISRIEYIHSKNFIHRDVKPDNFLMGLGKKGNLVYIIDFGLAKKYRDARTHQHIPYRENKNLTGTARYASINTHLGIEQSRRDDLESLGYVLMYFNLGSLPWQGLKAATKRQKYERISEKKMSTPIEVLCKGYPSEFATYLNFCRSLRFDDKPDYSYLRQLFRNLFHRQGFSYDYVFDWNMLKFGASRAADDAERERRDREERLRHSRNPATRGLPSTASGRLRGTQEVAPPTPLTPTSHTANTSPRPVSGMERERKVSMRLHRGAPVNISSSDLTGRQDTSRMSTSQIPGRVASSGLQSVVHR
T1 sequence (P48730 whole entry): as above

As to `CC1COc2c(-c3ccnc4ccsc34)c(-c3ccc(F)cn3)nn2C1` (stereo not drawn) [Example 195, 2-(5-Fluoropyridin-2-yl)-6-methyl-3-(thieno[3,2-b]pyridin-7-yl)-6,7-dihydro-5H-pyrazolo[5,1-b][1,3]oxazine], the IC50 was 218 nM at human CSNK1D and 21 nM in test [1].
In the same order, the values of `Fc1ccc(-c2nn3c(c2-c2ccnc4[nH]ncc24)OCC2(C3)CC2(F)F)nc1` (single isomer, unassigned) [Example 479, (*R)-2,2-Difluoro-2′-(5-fluoropyridin-2-yl)-3′-1H-pyrazolo[3,4-b]pyridin-4-yl)-5′H,7′H-spiro[cyclopropane-1,6′-pyrazolo[5,1-b][1,3]oxazine]] are 1320 nM and 32 nM.
The matching figures for `[2H]C([2H])([2H])[C@@]1(C(F)(F)F)Cn2nc(-c3ccc(F)cn3)c(-c3c(F)c(C)nc4[nH]nc(C)c34)c2CO1` (single isomer, unassigned) [Example 431, (*S)-3-(5-Fluoro-3,6-dimethyl-1H-pyrazolo[3,4-b]pyridin-4-yl)-2-(5-fluoropyridin-2-yl)-6-(methyl-d3)-6-(trifluoromethyl)-6,7-dihydro-4H-pyrazolo[5,1-c][1,4]oxazine]: above 10000 nM and 1580 nM.
The matching figures for `Cc1cc(-c2c(-c3ccc(F)cc3)nn3c2OCC2(C3)CC2(F)F)c2cn[nH]c2n1` (single isomer, unassigned) [Example 475, (*R)-2,2-Difluoro-2′-(4-fluorophenyl)-3′-(6-methyl-1H-pyrazolo[3,4-b]pyridin-4-yl)-5′H,7′H-spiro[cyclopropane-1,6′-pyrazolo[5,1-b][1,3]oxazine]]: 36 nM and 6 nM.
For the molecule `Cc1cc(-c2c(-c3ccc(F)cc3)nn3c2CCC3)c2cn[nH]c2n1` [Example 5, 4-(2-(4-Fluorophenyl)-5,6-dihydro-4H-pyrrolo[1,2-b]pyrazol-3-yl)-6-methyl-1H-pyrazolo[3,4-b]pyridine], the 50% inhibitory concentration (IC50) at human CSNK1D was determined as 22 nM; in test [1], 1 nM.
The matching figures for `CC1(C)Cc2c(-c3ccnc4[nH]ccc34)c(-c3ccc(F)cn3)nn2C1` [Example 233, 4-[2-(5-Fluoro-2-pyridyl)-5,5-dimethyl-4,6-dihydropyrrolo[1,2-b]pyrazol-3-yl]-1H-pyrrolo[2,3-b]pyridine]: 7 nM and 2 nM.
On to `Fc1ccc(-c2nn3c(c2-c2c(F)cnc4[nH]ncc24)CC[C@@]2(C3)CC2(F)F)nc1` (single isomer, unassigned) [Example 329, (*S)-2,2-Difluoro-3′-(5-fluoro-1H-pyrazolo[3,4-b]pyridin-4-yl)-2′-(5-fluoropyridin-2-yl)-4′,5′-dihydro-7′H-spiro[cyclopropane-1,6′-pyrazolo[1,5-a]pyridine]], for which the half-maximal inhibitory concentration (IC50) came to 163 nM at human CSNK1D and 23 nM in test [1].
With `Fc1ccc(-c2nn3c(c2-c2ccnc4[nH]nc(Cl)c24)CC2(C3)CC2(F)F)nc1` (single isomer, unassigned) [Example 257, (*R)-3-(3-Chloro-1H-pyrazolo[3,4-b]pyridin-4-yl)-1′,1′-difluoro-2-(5-fluoro-2-pyridyl)spiro[4,6-dihydropyrrolo[1,2-b]pyrazole-5,2′-cyclopropane]], the half-inhibitory concentration (IC50) stood at 10800 nM on human CSNK1D and 197 nM in test [1].
In the case of `Fc1ccc(-c2nn3c(c2-c2ccncc2)OCCC3)cc1` [Example 438, 2-(4-Fluorophenyl)-3-(4-pyridyl)-6,7-dihydro-5H-pyrazolo[5,1-b][1,3]oxazine], the IC50 on human CSNK1D was found to be 113 nM; in test [1] it was 12 nM.
In the same order, the values of `C[C@@]1(C(F)(F)F)Cn2nc(-c3ccc(F)cn3)c(-c3ccn4nccc4c3)c2CO1` (single isomer, unassigned) [Example 415, (*S)-2-(5-Fluoropyridin-2-yl)-6-methyl-3-(pyrazolo[1,5-a]pyridin-5-yl)-6-(trifluoromethyl)-6,7-dihydro-4H-pyrazolo[5,1-c][1,4]oxazine] are 3890 nM and 264 nM.
`Cc1cc(-c2c(-c3ccc(F)cc3)nn3c2CC[C@H]3C)c2cn[nH]c2n1` [Example 18, 4-[(6R)-2-(4-Fluorophenyl)-6-methyl-5,6-dihydro-4H-pyrrolo[1,2-b]pyrazol-3-yl]-6-methyl-1H-pyrazolo[3,4-b]pyridine]: the 50% inhibitory concentration (IC50) on human CSNK1D came to 19 nM; in test [1], 2 nM.
The matching figures for `[2H]C([2H])([2H])C1(C([2H])([2H])[2H])Cn2nc(-c3ccc(F)cn3)c(-c3cc(C)nc4[nH]nc(Cl)c34)c2CO1` [Example 405, 3-(3-Chloro-6-methyl-1H-pyrazolo[3,4-b]pyridin-4-yl)-2-(5-fluoropyridin-2-yl)-6,6-bis(methyl-d3)-6,7-dihydro-4H-pyrazolo[5,1-c][1,4]oxazine]: 14 nM and 5 nM.
The matching figures for `CC1(C)Cn2nc(-c3ccc(F)cn3)c(-c3ccnc4[nH]ccc34)c2CO1` [Example 147, 2-(5-Fluoropyridin-2-yl)-6,6-dimethyl-3-(1H-pyrrolo[2,3-b]pyridin-4-yl)-6,7-dihydro-4H-pyrazolo[5,1-c][1,4]oxazine]: 11 nM and 1 nM.
The matching figures for `Cc1nc2[nH]ncc2c(-c2c(-c3ccc(F)cn3)nn3c2CC[C@H]2[C@@H]3C2(F)F)c1F` (single isomer, unassigned) [Example 357, (5a*S,6a*R)-6,6-Difluoro-3-(5-fluoro-6-methyl-1H-pyrazolo[3,4-b]pyridin-4-yl)-2-(5-fluoropyridin-2-yl)-5,5a,6,6a-tetrahydro-4H-cyclopropa[e]pyrazolo[1,5-a]pyridine]: 40 nM and 8 nM.
`Fc1ccc(-c2nn3c(c2-c2ccnc4[nH]ncc24)C[C@H]2[C@@H](C3)C2(F)F)cc1` (stereo in doubt) [Example 363, (4a*S,5a*S)-5,5-Difluoro-2-(4-fluorophenyl)-3-(1H-pyrazolo[3,4-b]pyridin-4-yl)-4a,5,5a,6-tetrahydro-4H-cyclopropa[d]pyrazolo[1,5-a]pyridine]: the concentration for half-maximal inhibition (IC50) on human CSNK1D stood at 1410 nM; in test [1] it was 60 nM.
In the same order, the values of `C[C@@H]1C[C@@H](C)n2nc(-c3ccc(F)cn3)c(-c3ccnc4[nH]ncc34)c2O1` (single isomer, unassigned) [Example 204, (5*R,7*R)-2-(S-Fluoropyridin-2-yl)-5,7-dimethyl-3-(1H-pyrazolo[3,4-b]pyridin-4-yl)-6,7-dihydro-5H-pyrazolo[5,1-b][1,3]oxazine] are 305 nM and 13 nM.
With `C[C@H]1OCCn2nc(-c3ccc(F)cn3)c(-c3ccnc4[nH]ccc34)c21` [Example 80, (R)-2-(5-Fluoropyridin-2-yl)-4-methyl-3-(1H-pyrrolo[2,3-b]pyridin-4-yl)-6,7-dihydro-4H-pyrazolo[5,1-c][1,4]oxazine], the results for the IC50 (at human CSNK1D; in test [1]) were 3060 nM and 18 nM, respectively.
In the same order, the values of `C[C@@]1(CF)CCc2c(-c3ccncc3)c(-c3ccc(F)cn3)nn2C1` (single isomer, unassigned) [Example 285, (*R)-6-(Fluoromethyl)-2-(5-fluoro-2-pyridyl)-6-methyl-3-(4-pyridyl)-5,7-dihydro-4H-pyrazolo[1,5-a]pyridine] are 100 nM and 11 nM.
Take `COCC1(F)CCc2c(-c3c(F)c(C)nc4[nH]ncc34)c(-c3ccc(F)cn3)nn2C1` (single isomer, unassigned) [Example 309, (*R)-5-Fluoro-4-[6-fluoro-2-(5-fluoro-2-pyridyl)-6-(methoxymethyl)-5,7-dihydro-4H-pyrazolo[1,5-a]pyridin-3-yl]-6-methyl-1H-pyrazolo[3,4-b]pyridine]: the half-inhibitory concentration (IC50) turned out to be 1320 nM on human CSNK1D and 97 nM in test [1].
In the same order, the values of `Cc1nc(-c2c(-c3ccc(F)cn3)nn3c2CC[C@@H]2C[C@@H]23)c2cn[nH]c2n1` (relative stereo) [Example 347, (5a*R,6a*S)-2-(5-fluoropyridin-2-yl)-3-(6-methyl-1H-pyrazolo[3,4-d]pyrimidin-4-yl)-5,5a,6,6a-tetrahydro-4H-cyclopropa[e]pyrazolo[1,5-a]pyridine] are 573 nM and 35 nM.
The matching figures for `CCC(=O)Nc1cc(-c2c(-c3ccc(F)cn3)nn3c2OCCC3C)ccn1` (stereo not drawn) [Example 445, N-(4-(2-(5-Fluoropyridin-2-yl)-7-methyl-6,7-dihydro-5H-pyrazolo[5,1-b][1,3]oxazin-3-yl)pyridin-2-yl)propionamide]: 210 nM and 10 nM.
With `Cc1cc(-c2c(-c3ccc(F)cn3)nn3c2COC(C)(C)C3)c2cn[nH]c2n1` [Example 154, 2-(5-Fluoro-2-pyridyl)-6,6-dimethyl-3-(6-methyl-1H-pyrazolo[3,4-b]pyridin-4-yl)-4,7-dihydropyrazolo[5,1-c][1,4]oxazine], the IC50 was 23 nM at human CSNK1D and 2 nM in test [1].
In the case of `Fc1ccc(-c2nn3c(c2-c2ccnc4[nH]nc(Cl)c24)OCC(F)(F)C3)cc1` [Example 470, 3-(3-Chloro-1H-pyrazolo[3,4-b]pyridin-4-yl)-6,6-difluoro-2-(4-fluorophenyl)-6,7-dihydro-5H-pyrazolo[5,1-b][1,3]oxazine], the values for the IC50 (at human CSNK1D; in test [1]) were 17 nM and 1 nM, respectively.
The matching figures for `C[C@]1(C(F)(F)F)Cn2nc(-c3ccc(F)cn3)c(-c3ccnc4[nH]ncc34)c2CO1` (single isomer, unassigned) [Example 178, (*R)-2-(5-Fluoropyridin-2-yl)-6-methyl-3-(1H-pyrazolo[3,4-b]pyridin-4-yl)-6-(trifluoromethyl)-6,7-dihydro-4H-pyrazolo[5,1-c][1,4]oxazine]: 1000 nM and 77 nM.

For the origin of these results see US20230339970A1, “CASEIN KINASE 1 DELTA MODULATORS” (priority 2020, published 2023).
